Experimental data: patent publication US20240116985A1, “STAPLED PEPTIDES AND METHODS THEREOF” (priority 2020, published 2024)
Converted amounts (≈) assume the structure as drawn. Where two headings read alike, the source gives them in different places.

How the values were obtained:
[1] = CHI Log D procedure; type: physicochemical; settings: for CHI Log D: pH 7.4
[2] = Solubility in PBS; type: physicochemical
Outline: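 Steps: ultracentrifuge the peptide PBS solution, inject the supernatant on HPLC, inject a 50 μM peptide DMSO solution as reference, then calculate solubility as area ratio (PBS/DMSO) × 50 uM.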

[3] = target: T1, full-length B-Catenin (Uniprot ID P35222) (Homo sapiens, UniProt P35222); experiment: Alphascreen binding assay (beta-catenin / biotin-TCF4 10-53)
T1 construct: 65 nM full-length B-Catenin (Uniprot ID P35222)
T1 sequence (P35222 1-781): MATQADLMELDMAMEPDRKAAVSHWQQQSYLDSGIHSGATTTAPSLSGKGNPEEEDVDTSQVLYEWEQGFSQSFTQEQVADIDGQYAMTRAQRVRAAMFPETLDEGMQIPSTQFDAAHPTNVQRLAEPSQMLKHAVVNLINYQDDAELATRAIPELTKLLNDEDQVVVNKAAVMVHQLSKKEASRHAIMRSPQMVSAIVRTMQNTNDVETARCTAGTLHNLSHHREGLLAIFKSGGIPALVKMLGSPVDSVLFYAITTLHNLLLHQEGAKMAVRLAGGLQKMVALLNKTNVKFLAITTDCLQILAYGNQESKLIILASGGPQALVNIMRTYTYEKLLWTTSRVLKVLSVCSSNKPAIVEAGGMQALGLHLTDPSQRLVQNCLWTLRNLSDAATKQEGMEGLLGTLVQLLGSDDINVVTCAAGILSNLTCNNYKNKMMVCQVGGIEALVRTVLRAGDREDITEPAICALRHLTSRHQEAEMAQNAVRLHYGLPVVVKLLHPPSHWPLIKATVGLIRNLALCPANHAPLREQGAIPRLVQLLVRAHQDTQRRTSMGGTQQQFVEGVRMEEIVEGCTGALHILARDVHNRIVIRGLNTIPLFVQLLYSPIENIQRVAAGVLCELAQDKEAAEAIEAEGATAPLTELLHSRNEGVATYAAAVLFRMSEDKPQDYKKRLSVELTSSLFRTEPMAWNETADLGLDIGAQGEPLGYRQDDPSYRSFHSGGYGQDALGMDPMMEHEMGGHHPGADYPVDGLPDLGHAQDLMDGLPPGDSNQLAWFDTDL
Outline: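 AlphaScreen (Ni-chelate beads) competition in 50 mM Tris pH 8.0, 250 mM NaCl with detergents and 0.1% BSA. Peptide titrated 10 uM–5 nM against 65 nM human β-catenin bound to 10 nM biotinylated TCF4 10-53, 15 min then 60 min with beads, both at 20 °C; 1:1 Hill-slope fit.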

[4] = target: T2, full-length beta-Catenin (Uniprot ID P35222) (Homo sapiens, UniProt P35222); experiment: Fluorescence polarization IC50 (beta-catenin / 5FAM-TCF4 10-53 competition); type: binding
T2 construct: 10 nM full-length beta-Catenin (Uniprot ID P35222)
T2 sequence (P35222 1-781): T1 sequence (P35222 1-781)

[5] = Table E2-1, read-out: beta-Catenin FP IC50
[6] = fluorescence polarization, beta-catenin, read-out: FP EC50

| Structure (SMILES) | chromatographic logD ([1]; pH 7.4, CHI Log D) | Solubility [2] [µM] | EC50 [3] [nM] | IC50 [4, 5] [nM] | CHI Log D [1] | IC50 [4, 6] [nM] |
| --- | --- | --- | --- | --- | --- | --- |
| CC(=O)N1CCC[C@]12CC=CCCCC1(CCCC=CCCCCCC[C@@](C)(C(=O)N[C@@H](Cc3ccccc3)C(=O)N[C@@H](Cc3c[nH]c4ccccc34)C(=O)N[C@@H](CCC(N)=O)C(N)=O)NC(=O)[C@H](C(C)C)NC(=O)[C@H](Cc3ccccc3)NC(=O)[C@H](C)NC(=O)[C@H](C)NC(=O)[C@H](CC(=O)O)NC(=O)[C@H](CC(=O)O)NC1=O)NC(=O)[C@H](C)NC(=O)[C@H](CC(=O)O)NC2=O (stereo partly drawn) [I-52, Ac-PL3-Asp-Ala-B5-Asp-Asp-Ala-Ala-Phe-Val-S8-Phe-Trp-Gln-NH2] | 1.93 | 50 (≈ 89.1 µg/mL) | 158 | 3200 |  |  |
| CC[C@H](C)[C@H](NC(=O)[C@H](CC(=O)O)NC(=O)[C@H](C)NC(C)=O)C(=O)N[C@]1(C)CCN(C)C(=O)OCC=CCCCCC[C@@](C)(C(=O)N[C@@H](Cc2ccccc2)C(=O)N[C@@H](Cc2c[nH]c3ccccc23)C(=O)N[C@@H](Cc2c[nH]cn2)C(N)=O)NC(=O)[C@H](CCC(N)=O)NC(=O)[C@H](Cc2ccccc2)NC(=O)[C@H](C)NC(=O)[C@H](C)NC(=O)[C@H](CCC(=O)O)NC(=O)[C@H](CC(=O)O)NC1=O [I-67, Ac-Ala-Asp-Ile-RdN-Asp-Glu-Ala-Ala-Phe-Gln-S7-Phe-Trp-His-NH2] |  | 50 (≈ 92.1 µg/mL) | 154 | 1230 | 1.24 | 1230 |
| CC(=O)N1CCC[C@]12CC=CCCCC1(CCCC=CCCCCCC[C@@](C)(C(=O)N[C@@H](Cc3ccccc3)C(=O)N[C@@H](Cc3c[nH]c4ccccc34)C(=O)N[C@@H](CCC(N)=O)C(N)=O)NC(=O)[C@H](C)NC(=O)[C@H](Cc3ccccc3)NC(=O)[C@H](C)NC(=O)[C@H](C)NC(=O)[C@H](CC(=O)O)NC(=O)[C@H](CC(=O)O)NC1=O)NC(=O)[C@H](C)NC(=O)[C@H](CC(=O)O)NC2=O (stereo partly drawn) [I-288, Ac-PL3-Asp-Ala-B5-Asp-Asp-Ala-Ala-Phe-Ala-S8-Phe-Trp-Gln-NH2] |  | 32 (≈ 56.1 µg/mL) | 74 | 1310 | 1.926 | 1310 |
| CCN(CC(=O)O)C[C@@H]1NC(=O)[C@H](CC(=O)O)NC(=O)C2(CCCC=CCCCCCC[C@@](C)(C(=O)N[C@@H](Cc3ccccc3)C(=O)N[C@@H](Cc3c[nH]c4ccccc34)C(=O)N[C@@H](CCC(N)=O)C(N)=O)NC(=O)[C@H](C(C)C)NC(=O)[C@H](Cc3ccccc3)NC(=O)[C@H](C)NC(=O)[C@H](C)NC1=O)CCCC=CC[C@]1(CCCN1C(C)=O)C(=O)N[C@@H](CC(=O)O)C(=O)N[C@@H](C)C(=O)N2 (stereo partly drawn) [I-173, Ac-PL3-Asp-Ala-B5-Asp-EtGA-Ala-Ala-Phe-Val-S8-Phe-Trp-Gln-NH2] |  | 26 (≈ 47.8 µg/mL) | 105 | 3120 | 3.076 | 3120 |
